# The NIST ThermoML archive (doi:10.1021/je400140n)
# ± gives the expanded uncertainty stated by the source.
# Experiment: molar heat capacity at constant pressure
# Settings: 336.2 K; 101.33 kPa; Liquid; Small sample (50 mg) DSC
row,Structure (SMILES),molar heat capacity at constant pressure [J/K/mol]
1,CCn1cc[n+](C)c1.N#CN=C=[N-] [1-ethyl-3-methylimidazolium dicyanamide],345.55 ± 55
2,CCn1cc[n+](C)c1.N#C[C-](C#N)C#N [1-ethyl-3-methyl-1H-imidazolium tricyanomethanide],376.9 ± 61
3,CCn1cc[n+](C)c1.N#C[S-] [1-ethyl-3-methylimidazolium thiocyanate],298.22 ± 48
4,CCCCn1cc[n+](C)c1.N#CN=C=[N-] [1-butyl-3-methylimidazolium dicyanamide],377.47 ± 61
5,O=S1(=O)CCCC1 [sulfolane],192.39 ± 31

# Same assay, conditions: 340.2 K; 101.33 kPa; Liquid; Small sample (50 mg) DSC
row,Structure (SMILES),molar heat capacity at constant pressure [J/K/mol]
1,CCCCn1cc[n+](C)c1.N#C[S-] [1-butyl-3-methylimidazolium thiocyanate],336 ± 54
2,CCn1cc[n+](C)c1.N#CN=C=[N-] [1-ethyl-3-methylimidazolium dicyanamide],348.21 ± 56
3,CCn1cc[n+](C)c1.N#C[C-](C#N)C#N [1-ethyl-3-methyl-1H-imidazolium tricyanomethanide],379.31 ± 61
4,CCn1cc[n+](C)c1.N#C[S-] [1-ethyl-3-methylimidazolium thiocyanate],300.59 ± 48
5,CCCCn1cc[n+](C)c1.N#CN=C=[N-] [1-butyl-3-methylimidazolium dicyanamide],380.35 ± 61
6,O=S1(=O)CCCC1 [sulfolane],194.32 ± 31

# Same assay, conditions: 344.2 K; 101.33 kPa; Liquid; Small sample (50 mg) DSC
row,Structure (SMILES),molar heat capacity at constant pressure [J/K/mol]
1,CCCCn1cc[n+](C)c1.N#C[S-] [1-butyl-3-methylimidazolium thiocyanate],338.57 ± 54
2,CCn1cc[n+](C)c1.N#CN=C=[N-] [1-ethyl-3-methylimidazolium dicyanamide],351.22 ± 56
3,CCn1cc[n+](C)c1.N#C[C-](C#N)C#N [1-ethyl-3-methyl-1H-imidazolium tricyanomethanide],381.73 ± 61
4,CCn1cc[n+](C)c1.N#C[S-] [1-ethyl-3-methylimidazolium thiocyanate],303.12 ± 49
5,CCCCn1cc[n+](C)c1.N#CN=C=[N-] [1-butyl-3-methylimidazolium dicyanamide],383.63 ± 62
6,O=S1(=O)CCCC1 [sulfolane],196.36 ± 31

# Same assay, conditions: 348.2 K; 101.33 kPa; Liquid; Small sample (50 mg) DSC
row,Structure (SMILES),molar heat capacity at constant pressure [J/K/mol]
1,CCCCn1cc[n+](C)c1.N#C[S-] [1-butyl-3-methylimidazolium thiocyanate],341.13 ± 55
2,CCn1cc[n+](C)c1.N#CN=C=[N-] [1-ethyl-3-methylimidazolium dicyanamide],354.41 ± 57
3,CCn1cc[n+](C)c1.N#C[C-](C#N)C#N [1-ethyl-3-methyl-1H-imidazolium tricyanomethanide],384.35 ± 62
4,CCn1cc[n+](C)c1.N#C[S-] [1-ethyl-3-methylimidazolium thiocyanate],305.49 ± 49
5,CCCCn1cc[n+](C)c1.N#CN=C=[N-] [1-butyl-3-methylimidazolium dicyanamide],386.71 ± 62
6,O=S1(=O)CCCC1 [sulfolane],198.52 ± 32

# Same assay, conditions: 352.2 K; 101.33 kPa; Liquid; Small sample (50 mg) DSC
row,Structure (SMILES),molar heat capacity at constant pressure [J/K/mol]
1,CCCCn1cc[n+](C)c1.N#C[S-] [1-butyl-3-methylimidazolium thiocyanate],344.29 ± 55
2,CCn1cc[n+](C)c1.N#CN=C=[N-] [1-ethyl-3-methylimidazolium dicyanamide],357.78 ± 57
3,CCn1cc[n+](C)c1.N#C[C-](C#N)C#N [1-ethyl-3-methyl-1H-imidazolium tricyanomethanide],387.16 ± 62
4,CCn1cc[n+](C)c1.N#C[S-] [1-ethyl-3-methylimidazolium thiocyanate],308.2 ± 49
5,CCCCn1cc[n+](C)c1.N#CN=C=[N-] [1-butyl-3-methylimidazolium dicyanamide],390.4 ± 63
6,O=S1(=O)CCCC1 [sulfolane],200.81 ± 32

# Same assay, conditions: 356.2 K; 101.33 kPa; Liquid; Small sample (50 mg) DSC
row,Structure (SMILES),molar heat capacity at constant pressure [J/K/mol]
1,CCCCn1cc[n+](C)c1.N#C[S-] [1-butyl-3-methylimidazolium thiocyanate],347.05 ± 56
2,CCn1cc[n+](C)c1.N#CN=C=[N-] [1-ethyl-3-methylimidazolium dicyanamide],361.15 ± 58
3,CCn1cc[n+](C)c1.N#C[C-](C#N)C#N [1-ethyl-3-methyl-1H-imidazolium tricyanomethanide],390.18 ± 63
4,CCn1cc[n+](C)c1.N#C[S-] [1-ethyl-3-methylimidazolium thiocyanate],310.91 ± 50
5,CCCCn1cc[n+](C)c1.N#CN=C=[N-] [1-butyl-3-methylimidazolium dicyanamide],394.51 ± 63
6,O=S1(=O)CCCC1 [sulfolane],203.21 ± 33

# Same assay, conditions: 360.2 K; 101.33 kPa; Liquid; Small sample (50 mg) DSC
row,Structure (SMILES),molar heat capacity at constant pressure [J/K/mol]
1,CCCCn1cc[n+](C)c1.N#C[S-] [1-butyl-3-methylimidazolium thiocyanate],350.21 ± 56
2,CCn1cc[n+](C)c1.N#CN=C=[N-] [1-ethyl-3-methylimidazolium dicyanamide],364.87 ± 59
3,CCn1cc[n+](C)c1.N#C[C-](C#N)C#N [1-ethyl-3-methyl-1H-imidazolium tricyanomethanide],393 ± 63
4,CCn1cc[n+](C)c1.N#C[S-] [1-ethyl-3-methylimidazolium thiocyanate],313.96 ± 50
5,CCCCn1cc[n+](C)c1.N#CN=C=[N-] [1-butyl-3-methylimidazolium dicyanamide],398.82 ± 64
6,O=S1(=O)CCCC1 [sulfolane],205.73 ± 33

# Same assay, conditions: 364.2 K; 101.33 kPa; Liquid; Small sample (50 mg) DSC
row,Structure (SMILES),molar heat capacity at constant pressure [J/K/mol]
1,CCCCn1cc[n+](C)c1.N#C[S-] [1-butyl-3-methylimidazolium thiocyanate],353.37 ± 57
2,CCn1cc[n+](C)c1.N#CN=C=[N-] [1-ethyl-3-methylimidazolium dicyanamide],368.59 ± 59
3,CCn1cc[n+](C)c1.N#C[C-](C#N)C#N [1-ethyl-3-methyl-1H-imidazolium tricyanomethanide],396.22 ± 64
4,CCn1cc[n+](C)c1.N#C[S-] [1-ethyl-3-methylimidazolium thiocyanate],317.17 ± 51
5,CCCCn1cc[n+](C)c1.N#CN=C=[N-] [1-butyl-3-methylimidazolium dicyanamide],403.34 ± 65
6,O=S1(=O)CCCC1 [sulfolane],208.26 ± 33

# Same assay, conditions: 368.2 K; 101.33 kPa; Liquid; Small sample (50 mg) DSC
row,Structure (SMILES),molar heat capacity at constant pressure [J/K/mol]
1,CCCCn1cc[n+](C)c1.N#C[S-] [1-butyl-3-methylimidazolium thiocyanate],356.72 ± 57
2,CCn1cc[n+](C)c1.N#CN=C=[N-] [1-ethyl-3-methylimidazolium dicyanamide],372.49 ± 60
3,CCn1cc[n+](C)c1.N#C[C-](C#N)C#N [1-ethyl-3-methyl-1H-imidazolium tricyanomethanide],399.24 ± 64
4,CCn1cc[n+](C)c1.N#C[S-] [1-ethyl-3-methylimidazolium thiocyanate],320.05 ± 51
5,CCCCn1cc[n+](C)c1.N#CN=C=[N-] [1-butyl-3-methylimidazolium dicyanamide],408.26 ± 65
6,O=S1(=O)CCCC1 [sulfolane],210.9 ± 34

# Same assay, conditions: 372.2 K; 101.33 kPa; Liquid; Small sample (50 mg) DSC
row,Structure (SMILES),molar heat capacity at constant pressure [J/K/mol]
1,CCCCn1cc[n+](C)c1.N#C[S-] [1-butyl-3-methylimidazolium thiocyanate],360.27 ± 58
2,CCn1cc[n+](C)c1.N#CN=C=[N-] [1-ethyl-3-methylimidazolium dicyanamide],376.74 ± 60
3,CCn1cc[n+](C)c1.N#C[C-](C#N)C#N [1-ethyl-3-methyl-1H-imidazolium tricyanomethanide],403.06 ± 65
4,CCn1cc[n+](C)c1.N#C[S-] [1-ethyl-3-methylimidazolium thiocyanate],323.43 ± 52
5,CCCCn1cc[n+](C)c1.N#CN=C=[N-] [1-butyl-3-methylimidazolium dicyanamide],413.6 ± 67
6,O=S1(=O)CCCC1 [sulfolane],213.66 ± 34
